Consider seven compounds from patent US12522576B2, “Polymorphs of D9-THC naphthoylester” (priority 2019, dated 2026).

Values after ≈ are worked out from the molar mass of the structure shown.

As usually defined, the solubility is how much of the substance goes into solution per volume.

The nature of series [1]: D9 solubility in the liquors at isolation temperature. The class given is physicochemical. The following applies: organic solvent or mixture, thermodynamic from solid. The protocol:
At the end of each experiment, suspensions were equilibrated at the isolation temperature (25 or 5° C.) for at least 18 hours and the solids and liquors separated by centrifugation at the isolation temperature. The Exo/D9/D8 ratio (Exo-D9-THC-naphthoylester impurity/D9-THC-naphthoylester/D8-THC-naphthoylester) was determined in both the isolated solids and the liquors, from which the % Exo-depletion in the isolated solids was calculated. Several solids were also isolated at elevated temperatures to assess the impact of the isolation temperature on Exo-impurity depletion.
In addition, the solubility of D9 in the liquors was determined in most of the explored solvents and used to estimate the yield.

The nature of series [2]: Competitive ripening (relative thermodynamic stability of non-solvated forms). As to conditions: for Nature (thermodynamic stability of crystal form): Table 6 summary.
Setting [3] is: Experiment No. 10, n-BuOH, 25 °C.
The mark [4] stands for this setting: Experiment No. 14, Toluene/EtOH (1:9), 5 °C.
The mark [5] stands for this setting: Experiment No. 16, n-BuOH, 5 °C.

`CCCCCc1cc(OC(=O)c2ccc3ccccc3c2)c2c(c1)OC(C)(C)[C@@H]1CCC(C)=C[C@@H]21` [Form G, (6aR,10aR)-6a,7,8,10a-tetrahydro-6,6,9-trimethyl-3-pentyl-6H-dibenzo[b,d]pyran-1-yl ester]: the solubility in series [1] (crystallisation liquors over suspended solid, 25 °C, batch 5, Anisole/MeOH (1:9), seed E/G, heat T 50, isolation T 25, 9.4 mL/g, SP 3) came to 8.1 mg/mL (≈ 17.3 mM); in series [1] (crystallisation liquors over suspended solid, 25 °C, batch 5, Cyclohexanone/MeOH (1:3), seed G, heat T 40, isolation T 25, 9.4 mL/g, SP 3) it was 34.4 mg/mL (≈ 73.4 mM); in series [1] (crystallisation liquors over suspended solid, 25 °C, batch 5, EtOAc/EtOH (1:9), seed G/H, heat T 55, isolation T 25, 5.0 mL/g, SP 15, Exp 53), 17.8 mg/mL (≈ 38 mM); in series [1] (crystallisation liquors over suspended solid, 25 °C, batch 5, EtOAc/MeOH (1:2), seed H, heat T 55, isolation T 25, 8.0 mL/g, SP 21, Exp 50) it was 18.5 mg/mL (≈ 39.5 mM); in series [1] (crystallisation liquors over suspended solid, 25 °C, batch 5, EtOAc/MeOH (1:3), seed G/H, heat T 55, isolation T 25, 10.0 mL/g, SP 15, Exp 55), 9.7 mg/mL (≈ 20.7 mM); in series [1] (crystallisation liquors over suspended solid, 25 °C, batch 5, MEK/MeOH (3:7), seed G/H, heat T 55, isolation T 25, 5.0 mL/g, SP 15, Exp 51), 23.2 mg/mL (≈ 49.5 mM). Besides, the solubility in series [1] (crystallisation liquors over suspended solid, 25 °C, batch 5, Toluene/MeOH (1:9), seed E/G, heat T 50, isolation T 25, 9.6 mL/g, SP 3) amounted to 6.5 mg/mL (≈ 13.9 mM); in series [1] (crystallisation liquors over suspended solid, 25 °C, batch 5, Toluene/MeOH (5:95), seed H, heat T 50, isolation T 25, 10.0 mL/g, SP 20, Exp 44), 3.4 mg/mL (≈ 7.26 mM); in series [1] (crystallisation liquors over suspended solid, 25 °C, batch 5, p-Xylene/MeOH (1:9), seed E/G, heat T 50, isolation T 25, 19.5 mL/g, SP 3), 7.5 mg/mL (≈ 16 mM); in series [1] (liquors of the equilibrated crystallisation suspension, 25 °C, batch 5, Cyclohexanone/MeOH (1:3), seed G, heat T 25, isolation T 25, 30.0 mL/g, SP 7), 29.3 mg/mL (≈ 62.5 mM). Besides, in series [2], the “Nature (thermodynamic stability of crystal form)” value (“Nature” below) is “Metastable”.

As to `CCCCCc1cc(OC(=O)c2ccc3ccccc3c2)c2c(c1)OC(C)(C)[C@@H]1CCC(C)=C[C@@H]21` [A, B, C, E, G], the “Form Isolated 1-3 d” value in series [2] (Experiment No. 7, Acetone/MeOH (1:3), 25 °C) is reported as “E/G”; in series [2] (Experiment No. 8, Toluene/EtOH (1:9), 25 °C), “G/E”; in series [2] (setting [3]) it was “B/G”. Moreover, the “Form Isolated 4-9 d” value in series [2] (setting [3]), in series [2] (setting [4]) and in series [2] (setting [5]) was “B/G” each time. For the same compound, the “Form Isolated 26-29 d” value is listed as “G/B(tr)” in series [2] (setting [4]) and “B/G” in series [2] (setting [5]).

Take `CCCCCc1cc(OC(=O)c2ccc3ccccc3c2)c2c(c1)OC(C)(C)[C@@H]1CCC(C)=C[C@@H]21` [Form A, (6aR,10aR)-6a,7,8,10a-tetrahydro-6,6,9-trimethyl-3-pentyl-6H-dibenzo[b,d]pyran-1-yl ester]: in series [2], the “Nature” value is given as “Metastable”.

For the compound `CCCCCc1cc(OC(=O)c2ccc3ccccc3c2)c2c(c1)OC(C)(C)[C@@H]1CCC(C)=C[C@@H]21` [Form C, (6aR,10aR)-6a,7,8,10a-tetrahydro-6,6,9-trimethyl-3-pentyl-6H-dibenzo[b,d]pyran-1-yl ester], the solubility stood at 21.6 mg/mL (≈ 46.1 mM) in series [1] (crystallisation liquors over suspended solid, 5 °C, batch 5, MeCN/MIBK (8:2), seed D, heat T 50, isolation T 5, SP 6, 20.0 mL/g); 8.4 mg/mL (≈ 17.9 mM) in series [1] (crystallisation liquors over suspended solid, 5 °C, batch 5, MeCN/MeOH (9:1), seed D/G, heat T 50, isolation T 5, SP 6, 30.0 mL/g); 8.6 mg/mL (≈ 18.4 mM) in series [1] (crystallisation liquors over suspended solid, 25 °C, batch 5, MeCN, seed D, heat T 50, isolation T 25, SP 5, 30.0 mL/g); 25.5 mg/mL (≈ 54.4 mM) in series [1] (crystallisation liquors over suspended solid, 25 °C, batch 5, MeCN/MIBK (8:2), seed D, heat T 50, isolation T 25, SP 2, 3.2 mL/g); 22.3 mg/mL (≈ 47.6 mM) in series [1] (crystallisation liquors over suspended solid, 25 °C, batch 5, MeCN/MIBK (8:2), seed D, heat T 50, isolation T 25, SP 5, 20.0 mL/g); 8.7 mg/mL (≈ 18.6 mM) in series [1] (crystallisation liquors over suspended solid, 25 °C, batch 5, MeCN/MeOH (9:1), seed D/G, heat T 50, isolation T 25, SP 5, 30.0 mL/g). For the same compound, the “Nature” value in series [2] is given as “Metastable”.

Turning to `CCCCCc1cc(OC(=O)c2ccc3ccccc3c2)c2c(c1)OC(C)(C)[C@@H]1CCC(C)=C[C@@H]21` [G, H], the “Form Isolated 1-3 d” value in series [2] (Experiment No. 5, Toluene/EtOH (1:9), 50 °C) is “H/G(tr)”; in series [2] (Experiment No. 6, n-BuOH, 50 °C), “H/G(tr)”; in series [2] (Experiment No. 11, Toluene/EtOH (1:9), 25 °C), “G/H”; in series [2] (Experiment No. 12, Heptane, 25 °C) it was “H/G”.

Take `CCCCCc1cc(OC(=O)c2ccc3ccccc3c2)c2c(c1)OC(C)(C)[C@@H]1CCC(C)=C[C@@H]21` [E, G]: the “Form Isolated 4-9 d” value in series [2] (Experiment No. 15, Heptane, 5 °C) is recorded as “G/B”.

Consider `CCCCCc1cc(OC(=O)c2ccc3ccccc3c2)c2c(c1)OC(C)(C)[C@@H]1CCC(C)=C[C@@H]21` [B, G, H], for which the “Form Isolated 12 d” value in series [2] (Experiment No. 17, Toluene/EtOH (1:9), 5 °C) was “G/H”; in series [2] (Experiment No. 18, Heptane, 5 °C) it was “H/B(tr)”; in series [2] (Experiment No. 19, n-BuOH, 5 °C), “B/H”.
